Results published in ChEMBL document CHEMBL4689842, “EUbOPEN Chemogenomics Library wave 1” (2021).

Test system: U2OS
Test: Incucyte cell viability with U2OS; also: filed as whole numbers so only -1 and 0 and 1 occur
Type: toxicity, cell-based
Settings: human, 10 µM, compound concentration 10 uM
[1] = 0 h, replicate number 1, timepoint 0 hours
[2] = 6 h, replicate number 1, timepoint 6 hours
[3] = 12 h, replicate number 1, timepoint 12 hours
[4] = 18 h, replicate number 1, timepoint 18 hours
[5] = 18 h, replicate number 2, timepoint 18 hours
[6] = 24 h, replicate number 1, timepoint 24 hours
[7] = 12 h, replicate number 2, timepoint 12 hours
[8] = 0 h, replicate number 2, timepoint 0 hours
[9] = 24 h, replicate number 2, timepoint 24 hours

Row | Structure (SMILES) | Growth Rate [1] | Growth Rate [2] | Growth Rate [3] | Growth Rate [4] | Growth Rate [5] | Growth Rate [6] | Growth Rate [7] | Growth Rate [8] | Growth Rate [9]
1 | COc1cccc2cc(-c3nc([C@H]4CC[C@H](C(=O)O)CC4)n4ncnc(N)c34)[nH]c12 [OSI-027] | 1 | 1 | 1 | 0 | 1 | 0 | – | – | –
2 | CCCS(=O)(=O)Nc1ccc(F)c(C(=O)c2c[nH]c3ncc(Cl)cc23)c1F [PLX-4720] | 0 | 1 | 0 | 0 | – | 0 | 1 | – | –
3 | CN1CCN(C(=O)C(C)(C)c2ccc(C(=O)Nc3cn4cc(-c5cc(C(C)(C)C)cc(C(C)(C)C)c5)ccc4n3)cc2)CC1 [T3-CLK-N] | – | – | 1 | 0 | 1 | 0 | – | 0 | 1
4 | O=C(Cc1ccc(-c2ccc(OCCN3CCOCC3)cc2)cn1)NCc1ccccc1 [TIRBANIBULIN] | – | 1 | 0 | 0 | – | 0 | – | 0 | –
5 | Cn1nc(C(F)(F)F)cc1-c1cnc(N2CCc3cc(S(=O)(=O)Nc4c(F)cc(Cl)cc4F)cc(N4CCCC4=O)c32)nc1 [TP-020] | – | 0 | 1 | 1 | 0 | 1 | 0 | 1 | 0
